# Laboratory results reported in patent US20040019026A1, “Compounds useful for treating hypertriglyceridemia” (priority 2000, published 2004).
# “And” between values parts separate entries of the source, which are not always exact repeats. Identical values can stand only once.
# Legend:
# [1] = tested on: normal young men and women; assay: Phase I trial, oral fluasterone 14 days: HDL levels (Example 5a); type: in vivo, human
# Description: (a) In a phase I trial in normal young men and women fluasterone was administered in a daily oral dose of 800 mg or 1600 mg for 14 days. The effect of this treatment on HDL levels in males and females is seen in the table hereinbelow.
# [2] = tested on: Syndrome X patients; assay: Randomized double-blind crossover trial in Syndrome X patients (Example 5c); type: in vivo, human; conditions: 600 mg twice daily, four weeks
# Source text: Eleven patients were enrolled in the trial. The average age was 50.2±12.8 years, and there were 10 males and 1 patient enrolled. Body weight and body mass index were 87.8±17.9 kg and 27.7±3.0 kg/m^2, respectively. All patients carried a diagnosis of dyslipidemia, including elevated triglycerides, for an average of 11.7±6.4 years.
# In this randomized, double-blind, crossover study, the 11 patients underwent eligibility screening (physical exam, medical history, laboratory evaluation, PSA, TSH), followed by a six-week lead-in phase (study weeks 1-6) that included diet (AHA Step II), and discontinuation of lipid-lowering therapy. At week 4, qualifying lipid testing was performed, followed by randomization to study treatment two weeks later. Four-weeks of each of the two study treatments, fluasterone 600 mg twice daily or placebo, were then administered (weeks 7 thru 10 and 15 thru 18), separated by a 4-week washout period. At baseline, and at the end of each treatment period measurement of total serum cholesterol, triglycerides, apolipoprotein A1, and the cholesterol and triglyceride content of VLDL, LDL, and HDL was done.
# The baseline triglyceride level (mg/dL) was 509±184 and the baseline HDL level (mg/dL) was 33.0±3.5.
# [3] = tested on: male BKS.Cg-m+/+Leprdb mice; assay: Seminal vesicle weights, androgenic potency (Example 9); type: in vivo
# Source text: (§1) Eight week old male BKS.Cg-m^+/+Lepr^db mice were obtained from Jackson Laboratories. These mice have a point mutation in the leptin receptor gene and produce a truncated receptor with impaired signaling capacity. These animals are severely insulin resistant and manifest an uncontrolled rise in blood sugar, severe depletion of the insulin-producing beta-cells of the pancreatic islets, and death by 10 months of age. The male animals also have very low plasma testosterone levels and as a consequence undeveloped seminal vesicle glands. Administration of androgens to these mice produces an increase in seminal vesicle weights similar to that seen in castrated males. Thus these animals can be used to assess androgenic potency of various compounds.
# The mice were housed five per cage on Alphacel bedding with ad libitum access to Purina 5015 chow and acidified water. The mice were housed in the Central Animal Facility (6th floor, Pharmacy building) with twelve hours of alternating light and darkness.
# (§2) A week later, the mice were treated subcutaneously (s.c.) with 0.05 mL fluasterone (16α-fluoro-5-androsten-17-one) suspended in an Emulphor-saline vehicle to give either a dose of 5 mg/kg s.c. or 20 mg/kg s.c. or intraperitoneally (i.p.) with 0.05 mL of fluasterone suspended in an Emulphor-saline vehicle to give a dose of 5 mg/kg. The Control mice received the Emulphor-saline vehicle s.c.
# (§3) All the mice were anesthetized lightly with isoflurane before treatment with fluasterone to minimize the risk of stressing the mice while giving the s.c. dose. Their food was removed the afternoon before administration with drug and the chow was to the mice the next morning immediately after treatment. All the mice had their chow removed daily and restored just after fluasterone administration. During the week, the mice had access to chow for approximately 6½ hours, while on the weekends, the mice had approximately 4½ hours of access to chow. Mice were treated daily (weekdays and weekends).
# Mice were treated daily with fluasterone, for about one month. Then the mice were sacrificed with an overdose of CO2. The seminal vesicles of each mouse were excised, cleaned of adventitia and the coagulating glands, and any liquid was pressed out and then the glands were weighed on a Mettler AE50 balance.
# [4] = tested on: male BKS.Cg-m+/+Leprdb mice; assay: Fasting plasma glucose levels in diabetic mice (Example 9); type: in vivo
# [5] = tested on: male BKS.Cg-m+/+Leprdb mice; assay: Fasting plasma triglyceride levels in diabetic mice (Example 9); type: in vivo
# Source text: as §1, §2, §3
# Plasma triglyceride levels were determined with a Sigma kit (334-UV ). The determination is based on the enzymatic hydrolysis of triglycerides to glycerol and free fatty acids by lipase. Glycerol is subsequently phosphorylated by ATP to produce glycerol-1-phosphate and ADP. ATP is regenerated by a pyruvate kinase-catalyzed reaction between ADP and phosphoenol pyruvate. […] NADH absorbs at 340 nm, thus the decrease in absorbance, measured at this wavelength, is directly proportional to the triglyceride concentration in the sample.
# Triglyceride Reagent A (containing ATP, lactate dehydrogenase, lipase, NADH, phosphoenol pyruvate, pyruvate kinase) and Triglyceride Reagent B were reconstituted with 10 mL and 2 mL of distilled water respectively. The Sample Regent is prepared by adding 0.25 mL of Triglyceride Reagent B to 10 mL of Triglyceride Reagent A. Blank, standards (50, 100 and 200 mg/dL) and sample tubes were prepared. One mL of Sample Reagent is added to all tubes. To the Blank tube, 20 μL of distilled water is added. For each Sample tube, 20 μL of plasma is added to the tube. All tubes were incubated at room temperature for 10 minutes. The tubes were read against a Reference containing distilled water. Triglyceride concentration in the samples were calculated by subtracting the absorbance of the Sample from the absorbance of the Blank and using the following formula: […]
# [6] = 5 mg/kg, i.p. daily about one month, individual mice
# [7] = 5 mg/kg, s.c. daily about one month, individual mice
# [8] = 20 mg/kg, s.c. daily about one month, individual mice
# [9] = 200 mg/kg oral, treatment day 0
# [10] = 200 mg/kg oral, treatment day 14, less than oral Control, p < 0.001
# [11] = 200 mg/kg oral, treatment day 17, less than oral Control, p < 0.001
smiles,measurement,setting,value
"C[C@]12CCCCC1=CC[C@@H]1[C@@H]2CC[C@]2(C)C(=O)[C@H](F)C[C@@H]12 [fluasterone, 16α-fluoro-5-androsten-17-one]",HDL Levels,"[1]; 800 mg daily oral for 14 days, Females (6), treatment, less than pretreatment, p < 0.015",46.1 ± 6.2 mg/dL
same,HDL Levels,"[1]; 800 mg daily oral for 14 days, Males (6), treatment",45.3 ± 15.9 mg/dL
same,HDL Levels,"[1]; 800 mg daily oral, Females (6), pretreatment",59.2 ± 7.0 mg/dL
same,HDL Levels,"[1]; 800 mg daily oral, Males (6), pretreatment",50.3 ± 20.1 mg/dL
same,HDL Levels,"[1]; 1600 mg daily oral for 14 days, Females (5), treatment",43.0 ± 8.1 mg/dL
same,HDL Levels,"[1]; 1600 mg daily oral for 14 days, Males (7), treatment",40.2 ± 7.4 mg/dL
same,HDL Levels,"[1]; 1600 mg daily oral, Females (5), pretreatment",45.3 ± 10.1 mg/dL
same,HDL Levels,"[1]; 1600 mg daily oral, Males (7), pretreatment",46.1 ± 6.6 mg/dL
same,"Change in HDL levels, least square means±S.E.M.","[2]; baseline 33.0±3.5 mg/dL, p=0.068 vs placebo",−5.8±4.1
same,"Change in triglyceride levels, least square means±S.E.M.","[2]; baseline 509±184 mg/dL, p<0.005 vs placebo",−165±76
same,Seminal Vesicles,[3]; [6],85.6 mg and 81.8 mg and 71.9 mg and 81.0 mg
same,s.v./b.w.,[3]; [6],2.1084 and 1.6166 and 1.5630 and 2.0301
same,Seminal Vesicles,"[3]; 5 mg/kg, i.p., Average, p < 0.005",80.1 p < 0.005 mg
same,s.v./b.w.,"[3]; 5 mg/kg, i.p., Average, p < 0.01",1.8295
same,Seminal Vesicles,[3]; [7],40.7 mg and 43.4 mg and 44.5 mg and 42.2 mg and 41.9 mg
same,s.v./b.w.,[3]; [7],0.8568 and 1.1361 and 0.9570 and 0.9420 and 0.9566
same,Seminal Vesicles,"[3]; 5 mg/kg, s.c., Average",42.5 mg
same,s.v./b.w.,"[3]; 5 mg/kg, s.c., Average, n.s.",0.9697 n.s.
same,Seminal Vesicles,[3]; [8],39.6 mg and 35.8 mg and 35.4 mg and 34.6 mg
same,s.v./b.w.,[3]; [8],0.8684 and 1.0000 and 0.8872 and 0.8065
same,Seminal Vesicles,"[3]; 20 mg/kg, s.c., Average, n.s.",36.4 n.s. mg
same,s.v./b.w.,"[3]; 20 mg/kg, s.c., Average, n.s.",0.8905 n.s.
same,Androgenicity,"[3]; 200 mg/kg p.o. dose, mouse",lack of androgenicity
same,Effect on seminal vesicle weights,[3]; i.p. route,highly significant increase in seminal vesicle weights
same,Effect on seminal vesicle weights,[3]; s.c. route at much higher doses,no apparent effect on seminal vesicle weights
same,Fasting Plasma Glucose Levels,"[4]; 5 mg/kg i.p., treatment day 0",270 ± 81.9 mg/dL
same,Fasting Plasma Glucose Levels,"[4]; 5 mg/kg i.p., treatment day 7",434 ± 264 mg/dL
same,Fasting Plasma Glucose Levels,"[4]; 5 mg/kg i.p., treatment day 14",410 ± 32.1 mg/dL
same,Fasting Plasma Glucose Levels,"[4]; 5 mg/kg i.p., treatment day 17, greater than s.c. Control, p < 0.01",635 ± 77.3^3 mg/dL
same,Fasting Plasma Glucose Levels,"[4]; 5 mg/kg s.c., treatment day 0",245 ± 102 mg/dL
same,Fasting Plasma Glucose Levels,"[4]; 5 mg/kg s.c., treatment day 7",173 ± 58.3 mg/dL
same,Fasting Plasma Glucose Levels,"[4]; 5 mg/kg s.c., treatment day 14, less than s.c. Control, p < 0.001",134 ± 29.8^1 mg/dL
same,Fasting Plasma Glucose Levels,"[4]; 5 mg/kg s.c., treatment day 17, less than s.c. Control, p < 0.001",96.0 ± 18.5^1 mg/dL
same,Fasting Plasma Glucose Levels,[4]; [9],245 ± 72.1 mg/dL
same,Fasting Plasma Glucose Levels,"[4]; 200 mg/kg oral, treatment day 7",181 ± 69.3 mg/dL
same,Fasting Plasma Glucose Levels,[4]; [10],107 ± 12.2^2 mg/dL
same,Fasting Plasma Glucose Levels,[4]; [11],104 ± 24.8^2 mg/dL
same,Fasting Plasma Triglyceride Levels,"[5]; 5 mg/kg i.p., treatment day 0",136 ± 38.4 mg/dL
same,Fasting Plasma Triglyceride Levels,"[5]; 5 mg/kg i.p., treatment day 7, less than s.c. Control, p < 0.02",91.1 ± 14.5^2 mg/dL
same,Fasting Plasma Triglyceride Levels,"[5]; 5 mg/kg i.p., treatment day 14, less than s.c. Control, p < 0.01",115 ± 14.2^4 mg/dL
same,Fasting Plasma Triglyceride Levels,"[5]; 5 mg/kg i.p., treatment day 17",116 ± 17.0 mg/dL
same,Fasting Plasma Triglyceride Levels,"[5]; 5 mg/kg s.c., treatment day 0",126 ± 20.9 mg/dL
same,Fasting Plasma Triglyceride Levels,"[5]; 5 mg/kg s.c., treatment day 7, less than s.c. Control, p < 0.02",115 ± 33.3^2 mg/dL
same,Fasting Plasma Triglyceride Levels,"[5]; 5 mg/kg s.c., treatment day 14, less than s.c. Control, p < 0.01",115 ± 15.7^4 mg/dL
same,Fasting Plasma Triglyceride Levels,"[5]; 5 mg/kg s.c., treatment day 17",115 ± 13.7 mg/dL
same,Fasting Plasma Triglyceride Levels,[5]; [9],126 ± 18.6 mg/dL
same,Fasting Plasma Triglyceride Levels,"[5]; 200 mg/kg oral, treatment day 7, less than oral Control, p < 0.01",107 ± 38.9^1 mg/dL
same,Fasting Plasma Triglyceride Levels,[5]; [10],95.7 ± 15.6^3 mg/dL
same,Fasting Plasma Triglyceride Levels,[5]; [11],100 ± 13.1^3 mg/dL
